The values below come from patent US4766140A, “Method of inhibiting aromatase” (Eli Lilly and Company, priority 1984, dated 1988).

One assay has as its target T1, aromatase (Rattus norvegicus, UniProt P22443).
T1 construct: ovarian microsomes are obtained from rats treated with pregnant mares serum gonadotropin; from tissue; host or cells: ovarian microsomes from rats treated with pregnant mares serum gonadotropin
T1 sequence (P22443 1-508): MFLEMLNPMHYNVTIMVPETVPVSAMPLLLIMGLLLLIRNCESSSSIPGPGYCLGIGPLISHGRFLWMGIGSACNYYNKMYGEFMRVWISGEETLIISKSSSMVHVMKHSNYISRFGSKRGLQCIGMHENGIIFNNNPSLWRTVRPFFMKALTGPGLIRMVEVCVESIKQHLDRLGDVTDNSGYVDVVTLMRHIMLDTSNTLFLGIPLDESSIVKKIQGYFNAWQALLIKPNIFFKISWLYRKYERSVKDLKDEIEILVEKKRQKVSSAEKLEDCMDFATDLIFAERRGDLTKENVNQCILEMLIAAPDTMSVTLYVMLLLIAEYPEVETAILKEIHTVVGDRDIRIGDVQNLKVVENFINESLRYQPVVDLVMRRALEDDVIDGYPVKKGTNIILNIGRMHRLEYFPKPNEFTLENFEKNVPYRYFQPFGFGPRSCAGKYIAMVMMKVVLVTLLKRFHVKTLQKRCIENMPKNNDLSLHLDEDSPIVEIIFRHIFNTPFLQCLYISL
Kind of assay: Aromatase inhibition in the rat ovarian microsome assay. The class given is biochemical. Particulars: rat ovarian microsomes; substrate (androstenedione) concentration 0.1 μM.

In assay [1] the test system is DMBA-induced mammary tumors. In words: DMBA-Induced Mammary Tumor Inhibition. The class given is in vivo, female Sprague-Dawley rats. To be noted: 4 mg/kg daily subcutaneously, Test No. I. The procedure:
Mammary tumors were produced in female Sprague-Dawley rats which were 50-60 days old by the gavage administration of 20 mg of 7,12-dimethylbenz[a]anthracene (DMBA). About six weeks after DMBA administration, the mammary glands were palpated at weekly intervals for the appearance of tumors. Whenever one or more tumors appeared and were measurable in an animal, that animal was selected for experimentation. […] Each control and test group contained 8 animals. The test compound was dissolved in corn oil and administered subcutaneously once daily. Every experiment included a group of control rats having tumors and were given corn oil vehicle subcutaneously. […] The area of each tumor was calculated by multiplying the shortest and longest diameters of the tumor. The treatment and measurement of animals continued for 3 weeks at which time the final areas of the tumors were determined. The change in the mean tumor area was determined, and the mean change was analyzed for its significance using Dunnett's t-test.

Procedure for aromatase: In this test system, ovarian microsomes are obtained from rats treated with pregnant mares serum gonadotropin. Test compounds are added to reaction vials containing 0.1 μM 4-androstene-3,17-dione, 100,000 dpm 1,2[^3 H]-androstenedione, the microsomes and a NADPH generating system. The concentrations of the inhibitors tested ranged between 0.005 and 10 μM.

As for `Clc1ccc(C(Cn2ccnc2)OCc2ccsc2Cl)c(Cl)c1` (centres unmarked) [1-(2-[(2-chloro-3-thienyl)-methoxy]-2-[2,4-dichlorophenyl]-ethyl)-1H-imidazole], the response at aromatase was half-maximal at 60 nM (EC50).
The same measure, in the same setting: the result for `c1ccc(CCCn2ccnc2)cc1` [1-(3-phenylpropyl)imidazole] reads 490 nM; that for `c1ccc(CCn2ccnc2)cc1` [1-(β-phenylethyl)imidazole], 630 nM.
Regarding `C=CCOC(Cn1ccnc1)c1ccc(Cl)cc1Cl` (centres unmarked) [1-[2-(2,4-dichlorophenyl)-2-(2-propenyloxy)ethyl]-1H-imidazole], the “Mean Tumor Area, Finish” value in assay [1] (after 3 weeks, statistically different from control, p < 0.05 (control 392.0)) worked out at 119.0 mm^2. Moreover, the “Mean Tumor Area, Start” value in assay [1] (start of test) is 55.2 mm^2. For the same compound, a half-maximal effect at aromatase (EC50) was put at 42 nM.
At aromatase, `O=[N+]([O-])c1ccc(CCn2ccnc2)cc1` [1-[2-(4-nitrophenyl)ethyl]-1H-imidazole] yielded an EC50 of less than 50 nM.
Same read-out and setting: next, `COc1ccc(OC)c(C(O)Cn2ccnc2)c1` (stereo not drawn) [α-(2,5-dimethoxyphenyl)-1H-imidazole-1-ethanol nitrate]: 1500 nM.
